Like-named read-outs stand apart in the source and are kept apart here.
How the values were obtained:
Male Sprague-Dawley rats [1] = details: rat, in vivo
Male Sprague-Dawley rats [2] = details: rat, in vivo; remark: listed apart in the source
Male Sprague-Dawley rats [3] = details: rat, in vivo; remark: listed apart in the source
[4] = test system: rats with chronic spinal cord injury exhibiting allodynia; assay: Intrathecal salicylate for pain: allodynia on light touch in rats with chronic spinal cord injury; type: in vivo, rat; details: intrathecal via ESOX pump, 60 μl per day; two rats; saline replaced by salicylate
Description: A 1-French silicon tubing was threaded into the intrathecal space from the atlanto-occipital membrane. The intrathecal catheter was connected an ESOX that was implanted subcutaneously. The ESOX pump flowed at a rate of 60 μl per day. Initially, saline was placed in the pumps. At testing on days 2, 12, 14 after pump placement, signs of allodynia were consistently observed when the animals were lightly touched at particular parts of their body (left flank for rat 1 and right shoulder for rat 2). Animals vocalized consistently when these areas were lightly touched. All of the behavioral testing was done by a person who was unaware of the type of drug delivered or the expected effects of the drug. The saline was removed from the pumps and the pumps were refilled with salicylate. […] When the salicylate was removed and replaced with saline, consistent allodynia was observed.

[5] = test system: rats with spinal cord injury; assay: BBB locomotor test after moderate to severe spinal cord injury; type: in vivo, rat; details: intrathecal via ESOX pump, 60 μl per day
Description: In this study, twenty-four rats deeply anesthetized rats received a moderate to severe spinal cord injury using a 2-French Fogarty embolectomy catheter. Shortly after injury, a 1-French silicon tubing was threaded into the intrathecal space from the atlanto-occipital membrane. The intrathecal catheter was connected an ESOX that was implanted subcutaneously. The ESOX pump flowed at a rate of 60 μl per day. Animals were randomly assigned to receive saline or salicylate. Animals were tested each week using the BBB locomotor test. All of the behavioral testing was done by a person who was unaware of the type of drug delivered or the expected effects of the drug. […] The average score for the saline treated rats was 0 while the average score for salicylate treated rats was 5.45.

choline-magnesium trisalicylate [Choline-Mg-Salicylate]
duration of effects (Male Sprague-Dawley rats [1]): not long-lasting | onset of response to the bolus (Male Sprague-Dawley rats [1]): rapid in onset | tail flick latency response (Male Sprague-Dawley rats [1]): dose-dependent | colorectal distension visceromotor response threshold (Male Sprague-Dawley rats [2]): dose-dependent | duration of effects (Male Sprague-Dawley rats [2]): not long-lasting | onset of response to the bolus (Male Sprague-Dawley rats [2]): rapid in onset | effect on flinches/licks of the hindpaw (formalin test) (Male Sprague-Dawley rats [3]): produced an effect

O=C(O)c1ccccc1O [salicylate]
allodynia (vocalization when lightly touched) [4]: no evidence of allodynia was observed | functional deficits versus saline [5]: on average less functional deficits | average BBB locomotor score ([5]; started shortly after injury): 5.45

From patent publication US8513281B1 (priority 1999, dated 2013)
